IC50 data for 1 molecule are collected here from publication PMC3420011, “Small-Molecule Inhibition of BRDT for Male Contraception” (Cell, 2012).

The assay has as its target T1, BRDT (Mus musculus, UniProt Q91Y44).
T1 construct: mBRDT(1) 23–133, first (N-terminal) bromodomain
The experiment in a line: AlphaScreen competition with H4Kac4 peptide (IC50); ITC. The format is binding. (In Alpha technology, singlet oxygen from a donor bead excites a nearby acceptor bead.)

Molecules are shown by their SMILES.

With `Cc1sc2c(c1C)C(c1ccc(Cl)cc1)=N[C@@H](CC(=O)OC(C)(C)C)c1nnc(C)n1-2` [(+)-JQ1], the IC50 (as a rule, the point on the concentration scale where inhibition reaches its midpoint) is 10 nM.
